Values joined by “and” are separate entries in the source; they are usually repeats but may differ in a detail not shown here. Equal entries are not always repeated. “Also recorded” adds a separate entry of the source. Marks after values point to notes of the source that are not given here.
Assays:
[1] = test system: permeabilized REF52 cells; experiment: ATP-dependent ventral stress fiber retraction in Triton X-100-permeabilized cells; type: cell-based, rat
Description: Detergent treatment leads to depletion of all soluble factors from the cells and, in particular, of ATP. Supplementing the medium with ATP induces the myosin 2-dependent contraction of stress fibers. […] We locally photoconverted spots along the length of ventral stress fibers, and tracked both retraction of the unconverted stress fiber ends and longitudinal movements of the photoconverted actin spots after adding ATP into the solution (Fig. 1C, left panel).
For stress fiber imaging, REF52 cells were transfected with mEos3.2-Actin expression plasmid and seeded onto a 35 mm glass bottom dish (Iwaki, 3930-035) 24 h prior to the assay.
The protocol of the cell permeabilization and cytoskeleton contractility assay has been described previously ([Tee and Bershadsky, 2016]; [Tee et al., 2015]). […] All drug remained in the buffer during the entire period of observation.

REF52 fibroblast = experiment: traction force microscopy in living cells; type: cell-based, rat; conditions: 30 μM, within 10 min
Method: Traction force microscopy with embedded beads was performed as described previously ([Rafiq et al., 2019]). Briefly, soft polydimethylsiloxanes CY 52-276A and CY 52-276B (Dow Corning, 0008602722) were mixed at the ratio 1:1 and Sylgard 184 crosslinker was used to tune the stiffness of the gel for proper force measurement of cells (∼95 kPa). The mixture was spin-coated onto a clean coverslip to achieve the thickness of ∼7 μm and cured for 1 h at 80°C. The surface of the gel was silanized with (3-aminopropyl)triethoxysilane for 2 h, followed by incubation of 0.04 μm FluoSpheres carboxylate-modified microspheres, dark red fluorescent (660/680) beads (Thermo Fisher Scientific, 1871942) at 1×10^6 beads/ml in a solution of 0.1 M NaHCO3 for 30 min. Before seeding the cells, the coverslips with beads were further incubated for 30 min with 10 μg/ml fibronectin, also dissolved in 0.1 M NaHCO3. Traction forces were calculated from bead displacement fields visualized by using live cell imaging as described by [Tseng et al. (2012)], and using the online ImageJ plugin (https://sites.google.com/site/qingzongtseng/tfm for plugin software details). The computation algorithm as published by [Sabass et al. (2008)] was used. The distribution of traction force magnitude was presented as a heat map (Fig. 1A), and mean magnitude values were calculated for each cell.

HFF cells = experiment: centripetal movement of myosin 2 filaments at transverse arcs in living cells (PIV); type: cell-based, human; conditions: treated 45 min, 12.5, 25 or 50 μM
Description: (§1) We also tested inhibition of contraction of another type of contractile actomyosin structure, i.e. of the transverse arcs formed by periodically arranged myosin and actin filaments in fibroblasts ([Hu et al., 2017]). We measured the velocity of movement of transverse arcs in human foreskin fibroblast (HFF) cells plated on a circular fibronectin island ([Tee et al., 2015]). In control cells, filaments of non-muscle myosin 2 were visualized by expression of GFP-tagged myosin regulatory light chain (GFP-MRLC) localized to the transverse arcs and moved towards the cell center with an average velocity of 0.152 μm/min, as determined by particle image velocimetry (PIV) (Fig. 2A) ([Hu et al., 2017)]. […] Permeabilization of the same cells by using Triton X-100 removed G-actin and ATP. […]
(§2) Particle Image Velocimetry (PIV) analysis was used to measure average instantaneous speed of filaments of non-muscle myosin 2 visualized by expression of GFP-MRLC. […] To quantify the retraction speed of stress fiber ends, we manually selected all ends labeled by unconverted mEOS3.2-actin and arranged them into kymographs for every cell. The retraction speed for each end during imaging was calculated manually using the kymograph. The average retraction speed of stress fibers was calculated for each cell and plotted.

permeabilized HFF cells = experiment: ATP-induced centripetal movement of myosin 2 filaments in permeabilized cells (PIV); type: cell-based, human; conditions: 50 μM
Description: as §1, §2

[2] = biological target: T1, human non-muscle myosin 2A (Homo sapiens, UniProt P35579); experiment: actin-activated ATPase assay (NADH-linked); type: biochemical; conditions: phosphorylated by MLCK; 10 µM actin, 25°C; approximate; read-out: IC50, actin-activated MgATPase activity
T1 construct: A heavy meromyosin (HMM)-like fragment of human non-muscle myosin 2A; made in house; host or cells: Sf9 insect cells (baculovirus co-infection)
T1 sequence (P35579 1-1337 limits assumed): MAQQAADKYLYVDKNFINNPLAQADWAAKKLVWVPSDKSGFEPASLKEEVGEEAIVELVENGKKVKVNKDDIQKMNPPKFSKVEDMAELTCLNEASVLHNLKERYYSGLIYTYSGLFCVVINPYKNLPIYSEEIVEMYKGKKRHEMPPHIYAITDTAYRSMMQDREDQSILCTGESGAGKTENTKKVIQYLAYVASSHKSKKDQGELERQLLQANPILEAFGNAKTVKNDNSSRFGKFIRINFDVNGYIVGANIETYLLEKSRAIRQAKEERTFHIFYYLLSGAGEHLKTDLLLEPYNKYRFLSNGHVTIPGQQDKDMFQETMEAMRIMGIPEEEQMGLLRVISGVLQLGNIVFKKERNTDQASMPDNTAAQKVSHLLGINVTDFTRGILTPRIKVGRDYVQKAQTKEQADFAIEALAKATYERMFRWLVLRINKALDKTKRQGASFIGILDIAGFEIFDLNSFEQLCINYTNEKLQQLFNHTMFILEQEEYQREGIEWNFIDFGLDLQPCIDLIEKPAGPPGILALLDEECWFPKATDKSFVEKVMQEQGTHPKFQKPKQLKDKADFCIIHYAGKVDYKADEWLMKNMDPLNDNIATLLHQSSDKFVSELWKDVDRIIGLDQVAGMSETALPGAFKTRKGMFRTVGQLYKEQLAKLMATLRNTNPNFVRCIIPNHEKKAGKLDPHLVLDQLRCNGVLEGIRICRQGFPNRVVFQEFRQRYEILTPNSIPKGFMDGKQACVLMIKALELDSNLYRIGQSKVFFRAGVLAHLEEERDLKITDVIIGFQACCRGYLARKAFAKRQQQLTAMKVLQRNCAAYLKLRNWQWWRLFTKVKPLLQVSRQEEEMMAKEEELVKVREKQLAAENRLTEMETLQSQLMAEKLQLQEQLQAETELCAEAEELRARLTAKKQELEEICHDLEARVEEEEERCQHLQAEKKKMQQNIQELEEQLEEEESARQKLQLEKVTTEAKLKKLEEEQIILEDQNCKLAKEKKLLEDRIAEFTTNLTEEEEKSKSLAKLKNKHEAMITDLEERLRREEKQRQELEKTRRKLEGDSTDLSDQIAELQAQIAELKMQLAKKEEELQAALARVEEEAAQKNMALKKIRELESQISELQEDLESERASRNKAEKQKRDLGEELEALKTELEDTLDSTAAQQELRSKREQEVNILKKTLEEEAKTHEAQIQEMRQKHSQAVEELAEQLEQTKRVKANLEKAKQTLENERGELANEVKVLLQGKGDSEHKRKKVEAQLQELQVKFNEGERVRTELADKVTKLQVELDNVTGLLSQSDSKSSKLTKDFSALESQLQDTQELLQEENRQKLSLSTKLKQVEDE
T1 sequence (O14950 2-172 partner limits assumed): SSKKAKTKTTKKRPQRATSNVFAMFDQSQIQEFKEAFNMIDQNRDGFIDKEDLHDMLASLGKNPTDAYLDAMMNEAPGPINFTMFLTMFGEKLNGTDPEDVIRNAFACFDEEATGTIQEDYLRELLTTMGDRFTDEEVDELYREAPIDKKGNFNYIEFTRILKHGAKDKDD
T1 sequence (P60660 2-151 partner limits assumed): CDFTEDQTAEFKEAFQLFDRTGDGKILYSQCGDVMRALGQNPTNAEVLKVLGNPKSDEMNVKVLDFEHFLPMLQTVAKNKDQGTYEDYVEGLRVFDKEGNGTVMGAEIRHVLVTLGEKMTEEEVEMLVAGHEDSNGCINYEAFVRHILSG
Method: (§3) Two methods are primarily used to assess actomyosin function in vitro. […] In the absence of actin, myosins have very low basal ATPase rates that are activated 10–1000-fold by the addition of actin ([De La Cruz and Ostap, 2009]).
(§4) A heavy meromyosin (HMM)-like fragment of human non-muscle myosin 2A was prepared by expression in Sf9 insect cells as described ([Kengyel et al., 2010]). Cells were co-infected with a virus driving the expression of the truncated myosin heavy chain as well as one driving the expression of regulatory and essential light chains. The myosin was phosphorylated through smooth muscle myosin light chain kinase (MLCK) prior to use ([Nagy et al., 2013]). Full-length Drosophila myosin 5 ([Lu et al., 2020]), Drosophila myosin 7a ([Yang et al., 2009]) and a forced dimeric HMM-like fragment of bovine myosin 10 ([Takagi et al., 2014]) were also produced in Sf9 cells. Drosophila myosin 5 was co-expressed with Drosophila ELC and calmodulin, whereas the HMM-like fragment of myosin 10 was co-expressed with calmodulin. Skeletal muscle HMM was produced by chymotrypic digestion of full-length rabbit fast skeletal muscle myosin ([Margossian and Lowey, 1982]). […]
(§5) Actin-activated ATPase assays were carried out using an NADH-linked assay in a Cary 50 spectrophotometer as previously described ([Heissler et al., 2015]). […] Absorbance was monitored at 340 nm. […]

[3] = biological target: rabbit skeletal muscle myosin 2; experiment: actin-activated ATPase assay (NADH-linked); type: biochemical; conditions: tissue purified, mixed isoforms; approximate
Method: as §3, §4, §5

MLCK = MLCK (Homo sapiens, UniProt Q15746); experiment: myosin light chain kinase phosphorylation of non-muscle myosin 2A (HPLC-mass spectrometry); type: biochemical; conditions: 100 μM
MLCK, sequence (Q15746 923-1914): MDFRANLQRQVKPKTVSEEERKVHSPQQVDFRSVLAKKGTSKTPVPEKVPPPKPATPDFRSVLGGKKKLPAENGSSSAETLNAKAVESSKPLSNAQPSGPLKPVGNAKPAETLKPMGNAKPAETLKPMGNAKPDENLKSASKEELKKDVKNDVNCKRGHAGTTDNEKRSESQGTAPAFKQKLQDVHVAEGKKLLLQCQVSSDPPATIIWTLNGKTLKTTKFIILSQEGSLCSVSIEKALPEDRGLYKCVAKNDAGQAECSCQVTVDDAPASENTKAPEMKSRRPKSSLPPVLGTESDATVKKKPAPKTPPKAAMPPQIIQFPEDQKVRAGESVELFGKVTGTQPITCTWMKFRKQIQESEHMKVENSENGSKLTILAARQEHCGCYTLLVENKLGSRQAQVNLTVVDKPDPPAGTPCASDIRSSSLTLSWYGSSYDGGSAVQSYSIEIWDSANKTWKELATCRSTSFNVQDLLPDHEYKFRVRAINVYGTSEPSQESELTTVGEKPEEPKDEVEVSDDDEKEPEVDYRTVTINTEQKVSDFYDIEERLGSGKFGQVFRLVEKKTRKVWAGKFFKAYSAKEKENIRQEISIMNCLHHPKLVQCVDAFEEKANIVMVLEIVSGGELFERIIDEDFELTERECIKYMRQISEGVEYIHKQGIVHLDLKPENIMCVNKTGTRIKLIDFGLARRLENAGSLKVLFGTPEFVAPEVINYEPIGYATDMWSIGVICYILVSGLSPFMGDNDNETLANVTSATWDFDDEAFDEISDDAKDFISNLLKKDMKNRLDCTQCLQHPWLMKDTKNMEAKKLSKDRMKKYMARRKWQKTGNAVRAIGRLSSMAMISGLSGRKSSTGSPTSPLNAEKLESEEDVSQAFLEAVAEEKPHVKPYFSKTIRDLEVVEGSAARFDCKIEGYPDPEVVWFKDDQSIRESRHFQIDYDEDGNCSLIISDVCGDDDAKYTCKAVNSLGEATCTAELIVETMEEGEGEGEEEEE

[4] = test system: rabbit skeletal muscle myosin 2 HMM; experiment: gliding actin in vitro motility assay; type: biochemical
Description: Here, skeletal muscle myosin 2 HMM is bound to a nitrocellulose-coated coverslip and its ability to translocate Rhodamine–phalloidin-labeled actin filaments observed (Table 1). […] The lack of reversibility could be due to covalent modification of myosin by SMIFH2. […] A higher drug concentration was required to achieve ∼50% of the gliding velocity than was required for similar inhibition of the actin-activated ATPase. This was also observed when blebbistatin was used to inhibit actin gliding ([Limouze et al., 2004]; [Sakamoto et al., 2005]).
The gliding actin in vitro motility assay was conducted at 30°C in 50 mM KCl, 4 mM MgCl2, 0.1 mM EGTA, 30 mM MOPS pH 7.2, 0.5% methylcellulose, 1 mM ATP, using an oxygen-savaging system consisting of 2.5 μg/ml glucose oxidase, 45 μg/ml catalase, 2.5 mg/ml glucose and […] DTT ([Sellers et al., 1993]). The rate of movement of actin filaments was determined as described previously ([Homsher et al., 1992]).

Drosophila myosin 5 = Drosophila myosin 5 (Drosophila melanogaster, UniProt A1Z6Z9); experiment: actin-activated ATPase assay (NADH-linked); type: biochemical; conditions: approximate
Description: (§6) There are 40 myosin heavy chain genes from twelve classes in the human genome ([Berg et al., 2001]). Many, but not all of these myosins are present in other metazoan species including Drosophila ([Yamashita et al., 2000]). Although all of these myosins contain a conserved motor domain, the tail portions are very diverse, allowing the myosins to perform a plethora of cellular functions. […] The assays regarding bovine myosin 10 are particularly interesting since this myosin plays a role in filopodia initiation and formation in mammalian cells ([Kerber and Cheney, 2011]), a process that also involves formin action.
(§7) A heavy meromyosin (HMM)-like fragment of human non-muscle myosin 2A was prepared by expression in Sf9 insect cells as described ([Kengyel et al., 2010]). Cells were co-infected with a virus driving the expression of the truncated myosin heavy chain as well as one driving the expression of regulatory and essential light chains. The myosin was phosphorylated through smooth muscle myosin light chain kinase (MLCK) prior to use ([Nagy et al., 2013]). Full-length Drosophila myosin 5 ([Lu et al., 2020]), Drosophila myosin 7a ([Yang et al., 2009]) and a forced dimeric HMM-like fragment of bovine myosin 10 ([Takagi et al., 2014]) were also produced in Sf9 cells. Drosophila myosin 5 was co-expressed with Drosophila ELC and calmodulin, whereas the HMM-like fragment of myosin 10 was co-expressed with calmodulin. Skeletal muscle HMM was produced by chymotrypic digestion of full-length rabbit fast skeletal muscle myosin ([Margossian and Lowey, 1982]). Rabbit skeletal muscle actin was prepared as previously described ([Lehrer and Kerwar, 1972]).
(§8) Actin-activated ATPase assays were carried out using an NADH-linked assay in a Cary 50 spectrophotometer as previously described ([Heissler et al., 2015]). […] The final amount of DMSO added to the samples was 2%. The assay conditions were 10 µM actin, 50 mM KCl, 10 mM MOPS, 2 mM MgCl2, 0.1 mM EGTA, 1 mM ATP, 10 mM MOPS pH 7.0 at 25°C. […] Absorbance was monitored at 340 nm.

Drosophila myosin 7a = biological target: T2, Drosophila myosin 7a (Drosophila melanogaster, UniProt Q9V3Z6); experiment: actin-activated ATPase assay (NADH-linked); type: biochemical; conditions: approximate
T2 construct: made in house; host or cells: Sf9 cells
Description: as §6, §7, §8

bovine myosin 10 = biological target: T3, bovine myosin 10 (Bos taurus, UniProt P79114); experiment: actin-activated ATPase assay (NADH-linked); type: biochemical; conditions: approximate
T3 construct: a forced dimeric HMM-like fragment of bovine myosin 10; dimerisation element (forced dimer); made in house; host or cells: Sf9 cells
T3 sequence (P79114 other isoform, or with tags, fused parts or gaps): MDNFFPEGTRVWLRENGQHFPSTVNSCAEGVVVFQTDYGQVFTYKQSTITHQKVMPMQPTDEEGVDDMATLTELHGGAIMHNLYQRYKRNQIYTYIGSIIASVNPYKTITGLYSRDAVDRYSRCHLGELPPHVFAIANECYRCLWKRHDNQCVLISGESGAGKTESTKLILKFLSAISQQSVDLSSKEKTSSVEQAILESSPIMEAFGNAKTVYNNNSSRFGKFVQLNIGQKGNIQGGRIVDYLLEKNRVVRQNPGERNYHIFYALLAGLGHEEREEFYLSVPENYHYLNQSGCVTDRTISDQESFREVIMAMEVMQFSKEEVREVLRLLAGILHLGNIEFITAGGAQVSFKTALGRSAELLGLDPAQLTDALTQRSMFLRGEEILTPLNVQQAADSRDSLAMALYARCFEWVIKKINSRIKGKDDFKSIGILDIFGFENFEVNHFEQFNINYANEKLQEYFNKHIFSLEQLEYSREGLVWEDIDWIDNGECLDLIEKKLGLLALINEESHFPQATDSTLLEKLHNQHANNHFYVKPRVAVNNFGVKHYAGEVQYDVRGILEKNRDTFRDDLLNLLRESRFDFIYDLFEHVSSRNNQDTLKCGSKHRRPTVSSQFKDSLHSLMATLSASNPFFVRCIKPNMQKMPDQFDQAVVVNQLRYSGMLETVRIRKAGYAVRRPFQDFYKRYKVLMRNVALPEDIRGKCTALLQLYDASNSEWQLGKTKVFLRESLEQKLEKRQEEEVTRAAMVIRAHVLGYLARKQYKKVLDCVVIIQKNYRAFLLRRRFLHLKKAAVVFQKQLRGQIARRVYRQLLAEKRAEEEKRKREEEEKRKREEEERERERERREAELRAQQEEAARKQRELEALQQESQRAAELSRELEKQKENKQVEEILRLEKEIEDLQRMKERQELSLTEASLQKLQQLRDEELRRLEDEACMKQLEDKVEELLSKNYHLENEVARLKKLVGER
Description: as §6, §7, §8

mDia1 = test system: mDia1; parameters: method as in Rizvi et al., 2009; conditions: actin assembly in the presence of profilin in vitro; ref Rizvi et al., 2009; read-out: Half-maximal inhibition of mDia1; cited from earlier work
[5] = test system: Formins: CYK-1, Cdc12 and Fus1, Bn1, mDia2; parameters: method as in Rizvi et al., 2009; conditions: CYK-1, Cdc12, Fus1, Bn1, mDia2; ref Rizvi et al., 2009; read-out: IC50 values for formins from a variety of species; cited from earlier work
pure actin = test system: pure actin; parameters: method as in Rizvi et al., 2009; conditions: ref Rizvi et al., 2009; cited from earlier work

| Structure (SMILES) | inhibition of ATP-induced retraction of stress fiber ends (contractility) ([1]; 100 μM pAB) | effect on traction forces exerted by cells (REF52 fibroblast) | inhibition of ATP-induced retraction of stress fiber ends (contractility) ([1]; >100 μM SMIFH2) | inhibition of ATP-induced retraction of stress fiber ends ([1]; ∼50μM SMIFH2) | velocity of centripetal movement of transverse arcs (myosin 2 filaments) (HFF cells) | ATP-induced centripetal movement of myosin 2 filaments (permeabilized HFF cells) | IC50 [2] | IC50 [3] | inhibition of MLCK activity (MLCK) | Velocity of actin filaments ([4]; 50 μM SMIFH2) | Velocity of actin filaments ([4]; 100 μM SMIFH2) | Velocity of actin filaments ([4]; 150 μM SMIFH2) | Velocity of actin filaments ([4]; 150 μM SMIFH2 followed by washout) | Velocity of actin filaments ([4]; 200 μM SMIFH2) | IC50 (Drosophila myosin 5) | IC50 (Drosophila myosin 7a) | IC50 (bovine myosin 10) | IC50 (mDia1) | IC50 [5] | effect on assembly of pure actin (pure actin) |
| --- | --- | --- | --- | --- | --- | --- | --- | --- | --- | --- | --- | --- | --- | --- | --- | --- | --- | --- | --- | --- |
| Cc1ccc2c(c1)C(=O)[C@]1(O)CCN(c3ccc(N)cc3)C1=N2 [pAB, para-aminoblebbistatin] | complete inhibition | – | – | – | – | – | – | – | – | – | – | – | – | – | – | – | – | – | – | – |
| O=C1NC(=S)N(c2cccc(Br)c2)C(=O)C1=Cc1ccco1 [SMIFH2] | – | inhibition of traction forces | complete inhibition | ~50% | decreased in dose-dependent manner | blocked centripetal movement | 50 µM and ~50 µM | ~40 µM | no effect; also recorded: did not inhibit | 4.1* μm/s | 4.1* μm/s | completely abolished; also recorded: No movement | could not be reversed; also recorded: No movement | No movement | 2 µM and ~2 µM | 30 µM and ~30 µM | 15 µM and ~15 µM | ~15 µM | 5 to 15 µM | did not affect |
